Laboratory results taken from patent publication US6737383B1, “Herbicidal oxadiazolidines” (priority 1999, dated 2004).

Tests used:
duck salad = assay: Test B flood test duck salad; assay type: in vivo, Heteranthera limosa
Procedure, shortened: (§1)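 Plants were grown to the 2-leaf stage before treatment with test chemical, then held in a greenhouse for twelve to sixteen days. Injury was visually rated against untreated controls on a 0–10 scale, where 0 is no effect and 10 is complete control.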

smallflower flatsedge = assay: Test B flood test smallflower flatsedge; assay type: in vivo, Cyperus difformis
Procedure, shortened: as §1

rape = assay: Test B pre/postemergence rape; assay type: in vivo, Brassica napus
Procedure, shortened: (§2)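 Herbicidal effect was estimated by eye on a ten-point control scale after plants spent twelve to sixteen days in a greenhouse following soil or foliar treatment. Foliar sprays targeted plants at one to four leaves; all doses were formulated in a non-phytotoxic solvent with surfactant.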

morningglory = assay: Test B pre/postemergence morningglory; assay type: in vivo, Ipomoea hederacea
Procedure, shortened: as §2

purple nutsedge = assay: Test B pre/postemergence purple nutsedge; assay type: in vivo, Cyperus rotundus
Procedure, shortened: as §2

velvetleaf = assay: Test B pre/postemergence velvetleaf; assay type: in vivo, Abutilon theophrasti
Procedure, shortened: as §2

crabgrass = assay: Test B pre/postemergence crabgrass; assay type: in vivo, Digitaria sanguinalis
Procedure, shortened: as §2

pigweed = assay: Test B pre/postemergence pigweed; assay type: in vivo, Amaranthus retroflexus
Procedure, shortened: as §2

cocklebur = assay: Test B pre/postemergence cocklebur; assay type: in vivo, Xanthium strumarium
Procedure, shortened: as §2

surinam grass = assay: Test B pre/postemergence surinam grass; assay type: in vivo, Brachiaria decumbens
Procedure, shortened: as §2

wheat = assay: Test B pre/postemergence wheat; assay type: in vivo, Triticum aestivum
Procedure, shortened: as §2

bedstraw = assay: Test B pre/postemergence bedstraw; assay type: in vivo, Galium aparine
Procedure, shortened: as §2

corn = assay: Test B pre/postemergence corn; assay type: in vivo, Zea mays
Procedure, shortened: as §2

wild oat = assay: Test B pre/postemergence wild oat; assay type: in vivo, Avena fatua
Procedure, shortened: as §2

sugar beet = assay: Test B pre/postemergence sugar beet; assay type: in vivo, Beta vulgaris
Procedure, shortened: as §2

blackgrass = assay: Test B pre/postemergence blackgrass; assay type: in vivo, Alopecurus myosuroides
Procedure, shortened: as §2

[1] = Postemergence, Rate 62 g/ha, scale 0 to 10, 0 is no effect, 10 is complete control
[2] = Rate 125 g/ha, Postemergence section (flood test species), scale 0 to 10, 0 no effect, 10 complete control
[3] = flood test, listed under Postemergence, Rate 250 g/ha, scale 0 to 10, 0 no effect, 10 complete control
[4] = Postemergence, Rate 250 g/ha, scale 0 to 10, 0 no effect, 10 complete control
[5] = Preemergence, Rate 62 g/ha, scale 0 to 10, 0 is no effect, 10 is complete control
[6] = Preemergence, Rate 125 g/ha, scale 0 to 10 (0 no effect, 10 complete control)
[7] = Preemergence, Rate 250 g/ha, scale of 0 to 10 where 0 is no effect and 10 is complete control
[8] = Preemergence, Rate 500 g/ha, scale 0 (no effect) to 10 (complete control)
[9] = Rate 125 g/ha, Postemergence, scale 0 to 10, 0 no effect, 10 complete control
[10] = Rate 500 g/ha, Postemergence, 0 to 10 scale (0 no effect, 10 complete control)

CCc1ccccc1-n1c(=O)on(C(=O)N(c2ccc(F)cc2)C(C)C)c1=O [Compound 34]
Ducksalad plant response rating (duck salad; [1]): 0 | Ducksalad plant response rating (duck salad; [2]): 0 | Ducksalad plant response rating (duck salad; Rate 500 g/ha, Postemergence section of Table B, 0 to 10 scale (0 no effect, 10 complete control)): 0 | Ducksalad plant response rating (duck salad; [3]): 0 | S. Flatsedge plant response rating (smallflower flatsedge; [1]): 0 | S. Flatsedge plant response rating (smallflower flatsedge; [2]): 0 | S. Flatsedge plant response rating (smallflower flatsedge; [3]): 0 | Rape plant response rating (rape; [1]): 0 | Rape plant response rating (rape; [4]): 0 | Plant response rating, Rape (rape; [5]): 0 | Plant response rating, Rape (rape; [6]): 0 | Plant response rating, Rape (rape; [7]): 0 | Rape plant response rating (rape; [8]): 3 | Rape plant response rating (rape; [9]): 0 | Rape plant response rating (rape; [10]): 0 | Morningglory plant response rating (morningglory; [1]): 1 | Morningglory plant response rating (morningglory; [4]): 5 | Plant response rating, Morningglory (morningglory; [5]): 0 | Plant response rating, Morningglory (morningglory; [6]): 0 | Plant response rating, Morningglory (morningglory; [7]): 0 | Morningglory plant response rating (morningglory; [8]): 0 | Morningglory plant response rating (morningglory; [9]): 2 | Morningglory plant response rating (morningglory; [10]): 8 | Nutsedge plant response rating (purple nutsedge; [1]): 0 | Nutsedge plant response rating (purple nutsedge; [4]): 0 | Plant response rating, Nutsedge (purple nutsedge; [5]): 0 | Plant response rating, Nutsedge (purple nutsedge; [6]): 0 | Plant response rating, Nutsedge (purple nutsedge; [7]): 0 | Nutsedge plant response rating (purple nutsedge; [8]): 0 | Nutsedge plant response rating (purple nutsedge; [9]): 0 | Nutsedge plant response rating (purple nutsedge; [10]): 0 | Velvetleaf plant response rating (velvetleaf; [1]): 0 | Velvetleaf plant response rating (velvetleaf; [4]): 2 | Plant response rating, Velvetleaf (velvetleaf; [5]): 0 | Plant response rating, Velvetleaf (velvetleaf; [6]): 0 | Plant response rating, Velvetleaf (velvetleaf; [7]): 0 | Velvetleaf plant response rating (velvetleaf; [8]): 2 | Velvetleaf plant response rating (velvetleaf; [9]): 0 | Crabgrass plant response rating (crabgrass; [1]): 0 | Crabgrass plant response rating (crabgrass; [4]): 3 | Plant response rating, Crabgrass (crabgrass; [5]): 7 | Plant response rating, Crabgrass (crabgrass; [6]): 7 | Plant response rating, Crabgrass (crabgrass; [7]): 10 | Crabgrass plant response rating (crabgrass; [8]): 10 | Crabgrass plant response rating (crabgrass; [9]): 0 | Crabgrass plant response rating (crabgrass; [10]): 9 | Redroot pigweed plant response rating (pigweed; [1]): 0 | Redroot pigweed plant response rating (pigweed; [4]): 6 | Plant response rating, Redroot pigweed (pigweed; [5]): 0 | Plant response rating, Redroot pigweed (pigweed; [6]): 2 | Plant response rating, Redroot pigweed (pigweed; [7]): 6 | Redroot pigweed plant response rating (pigweed; [8]): 6 | Redroot pigweed plant response rating (pigweed; [9]): 0 | Redroot pigweed plant response rating (pigweed; [10]): 7 | Cocklebur plant response rating (cocklebur; [1]): 0 | Cocklebur plant response rating (cocklebur; [4]): 0 | Plant response rating, Cocklebur (cocklebur; [5]): 0 | Plant response rating, Cocklebur (cocklebur; [6]): 0 | Plant response rating, Cocklebur (cocklebur; [7]): 0 | Cocklebur plant response rating (cocklebur; [8]): 0 | Cocklebur plant response rating (cocklebur; [9]): 0 | Cocklebur plant response rating (cocklebur; [10]): 4 | B. signalgrass plant response rating (surinam grass; [1]): 0 | B. signalgrass plant response rating (surinam grass; [4]): 0 | Plant response rating, B. signalgrass (surinam grass; [5]): 0 | Plant response rating, B. signalgrass (surinam grass; [6]): 1 | Plant response rating, B. signalgrass (surinam grass; [7]): 2 | B. signalgrass plant response rating (surinam grass; [8]): 3 | B. signalgrass plant response rating (surinam grass; [9]): 0 | B. signalgrass plant response rating (surinam grass; [10]): 0 | Wheat plant response rating (wheat; [1]): 0 | Wheat plant response rating (wheat; [4]): 0 | Plant response rating, Wheat (wheat; [5]): 0 | Plant response rating, Wheat (wheat; [6]): 0 | Plant response rating, Wheat (wheat; [7]): 0 | Wheat plant response rating (wheat; [8]): 2 | Wheat plant response rating (wheat; [9]): 0 | Bedstraw plant response rating (bedstraw; [1]): 4 | Bedstraw plant response rating (bedstraw; [4]): 6 | Plant response rating, Bedstraw (bedstraw; [5]): 0 | Plant response rating, Bedstraw (bedstraw; [6]): 0 | Plant response rating, Bedstraw (bedstraw; [7]): 0 | Bedstraw plant response rating (bedstraw; [8]): 0 | Bedstraw plant response rating (bedstraw; [9]): 4 | Bedstraw plant response rating (bedstraw; [10]): 7 | Corn plant response rating (corn; [1]): 0 | Corn plant response rating (corn; [4]): 0 | Plant response rating, Corn (corn; [5]): 0 | Plant response rating, Corn (corn; [6]): 0 | Plant response rating, Corn (corn; [7]): 0 | Corn plant response rating (corn; [8]): 0 | Corn plant response rating (corn; [9]): 0 | Corn plant response rating (corn; [10]): 0 | Wild oats plant response rating (wild oat; [1]): 0 | Wild oats plant response rating (wild oat; [4]): 0 | Plant response rating, Wild oats (wild oat; [6]): 0 | Plant response rating, Wild oats (wild oat; [7]): 2 | Wild oats plant response rating (wild oat; [8]): 7 | Wild oats plant response rating (wild oat; [9]): 0 | Sugarbeets plant response rating (sugar beet; [1]): 0 | Sugarbeets plant response rating (sugar beet; [4]): 0 | Plant response rating, Sugarbeets (sugar beet; [5]): 0 | Plant response rating, Sugarbeets (sugar beet; [6]): 0 | Plant response rating, Sugarbeets (sugar beet; [7]): 0 | Sugarbeets plant response rating (sugar beet; [8]): 4 | Sugarbeets plant response rating (sugar beet; [9]): 0 | Blackgrass plant response rating (blackgrass; [1]): 0 | Blackgrass plant response rating (blackgrass; [4]): 6 | Plant response rating, Blackgrass (blackgrass; [5]): 3 | Plant response rating, Blackgrass (blackgrass; [6]): 5 | Plant response rating, Blackgrass (blackgrass; [7]): 6 | Blackgrass plant response rating (blackgrass; [8]): 6 | Blackgrass plant response rating (blackgrass; [9]): 2 | Blackgrass plant response rating (blackgrass; [10]): 9
